The source made the active and inactive calls. The rule behind the calls is not given here.
Tests used:
A549 = assay: Cytotoxicity against human A549 cells assessed as cell growth inhibition measured after 24 hrs by MTT assay; assay type: functional, cell-based; details: A549, 24 h
SK-OV-3 = assay: Cytotoxicity against human SKOV3 cells assessed as cell growth inhibition measured after 24 hrs by MTT assay; assay type: functional, cell-based; details: SK-OV-3, 24 h
HeLa = assay: Cytotoxicity against human HeLa cells assessed as cell growth inhibition measured after 24 hrs by MTT assay; assay type: functional, cell-based
COLO 205 = assay: Cytotoxicity against human COLO205 cells assessed as cell growth inhibition measured after 24 hrs by MTT assay; assay type: functional, cell-based; details: COLO 205, 24 h
DU-145 [1] = assay: Cytotoxicity against human DU145 cells assessed as cell growth inhibition measured after 24 hrs by MTT assay; assay type: functional, cell-based; details: DU-145, 24 h
DU-145 [2] = assay: Induction of apoptosis in human DU145 cells assessed as increase in total apoptotic cells measured after 24 hrs by Annexin-V/FITC and propidium iodide staining based flow cytometry; assay type: functional, cell-based
DU-145 [3] = assay: Induction of apoptosis in human DU145 cells assessed as necrotic cells at 7 uM measured after 24 hrs by Annexin-V/FITC and propidium iodide staining based flow cytometry (reference value: 2.64 %); assay type: functional
DU-145 [4] = assay: Induction of apoptosis in human DU145 cells assessed as late apoptotic cells at 4.2 uM measured after 24 hrs by Annexin-V/FITC and propidium iodide staining based flow cytometry (reference value: 1.49 %); assay type: functional
DU-145 [5] = assay: Induction of apoptosis in human DU145 cells assessed as necrotic cells at 4.2 uM measured after 24 hrs by Annexin-V/FITC and propidium iodide staining based flow cytometry (reference value: 2.64 %); assay type: functional
DU-145 [6] = assay: Induction of apoptosis in human DU145 cells assessed as live cells at 4.2 uM measured after 24 hrs by Annexin-V/FITC and propidium iodide staining based flow cytometry (reference value: 95.62 %); assay type: functional
DU-145 [7] = assay: Induction of apoptosis in human DU145 cells assessed as late apoptotic cells at 7 uM measured after 24 hrs by Annexin-V/FITC and propidium iodide staining based flow cytometry (reference value: 1.49 %); assay type: functional
DU-145 [8] = assay: Induction of apoptosis in human DU145 cells assessed as live cells at 7 uM measured after 24 hrs by Annexin-V/FITC and propidium iodide staining based flow cytometry (reference value: 95.62 %); assay type: functional
DU-145 [9] = assay: Induction of apoptosis in human DU145 cells assessed as early apoptotic cells at 7 uM measured after 24 hrs by Annexin-V/FITC and propidium iodide staining based flow cytometry (reference value: 0.25 %); assay type: functional
DU-145 [10] = assay: Cell cycle arrest in human DU145 cells assessed as accumulation at G0/G1 phase at 4.2 uM measured after 24 hrs by RNase A/propidium iodide staining based flow cytometry analysis (reference value: 51.75 %); assay type: functional
DU-145 [11] = assay: Induction of apoptosis in human DU145 cells assessed as early apoptotic cells at 4.2 uM measured after 24 hrs by Annexin-V/FITC and propidium iodide staining based flow cytometry (reference value: 0.25 %); assay type: functional
DU-145 [12] = assay: Induction of apoptosis in human DU145 cells assessed as late apoptotic cells at 6 uM measured after 24 hrs by Annexin-V/FITC and propidium iodide staining based flow cytometry (reference value: 1.49 %); assay type: functional
DU-145 [13] = assay: Induction of apoptosis in human DU145 cells assessed as live cells at 6 uM measured after 24 hrs by Annexin-V/FITC and propidium iodide staining based flow cytometry (reference value: 95.62 %); assay type: functional
DU-145 [14] = assay: Induction of apoptosis in human DU145 cells assessed as necrotic cells at 3.6 uM measured after 24 hrs by Annexin-V/FITC and propidium iodide staining based flow cytometry (reference value: 2.64 %); assay type: functional
DU-145 [15] = assay: Induction of apoptosis in human DU145 cells assessed as necrotic cells at 6 uM measured after 24 hrs by Annexin-V/FITC and propidium iodide staining based flow cytometry (reference value: 2.64 %); assay type: functional
DU-145 [16] = assay: Induction of apoptosis in human DU145 cells assessed as live cells at 3.6 uM measured after 24 hrs by Annexin-V/FITC and propidium iodide staining based flow cytometry (reference value: 95.62 %); assay type: functional
DU-145 [17] = assay: Induction of apoptosis in human DU145 cells assessed as early apoptotic cells at 3.6 uM measured after 24 hrs by Annexin-V/FITC and propidium iodide staining based flow cytometry (reference value: 0.25 %); assay type: functional
DU-145 [18] = assay: Cell cycle arrest in human DU145 cells assessed as accumulation at G0/G1 phase at 3.6 uM measured after 24 hrs by RNase A/propidium iodide staining based flow cytometry analysis (reference value: 51.75 %); assay type: functional
DU-145 [19] = assay: Induction of apoptosis in human DU145 cells assessed as early apoptotic cells at 6 uM measured after 24 hrs by Annexin-V/FITC and propidium iodide staining based flow cytometry (reference value: 0.25 %); assay type: functional
DU-145 [20] = assay: Induction of apoptosis in human DU145 cells assessed as late apoptotic cells at 3.6 uM measured after 24 hrs by Annexin-V/FITC and propidium iodide staining based flow cytometry (reference value: 1.49 %); assay type: functional
DU-145 [21] = assay: Cell cycle arrest in human DU145 cells assessed as accumulation at G2/M phase at 4.8 uM measured after 24 hrs by RNase A/propidium iodide staining based flow cytometry analysis; assay type: functional
DU-145 [22] = assay: Induction of apoptosis in human DU145 cells assessed as late apoptotic cells at 4.8 uM measured after 24 hrs by Annexin-V/FITC and propidium iodide staining based flow cytometry (reference value: 1.49 %); assay type: functional
DU-145 [23] = assay: Induction of apoptosis in human DU145 cells assessed as early apoptotic cells at 4.8 uM measured after 24 hrs by Annexin-V/FITC and propidium iodide staining based flow cytometry (reference value: 0.25 %); assay type: functional
DU-145 [24] = assay: Induction of apoptosis in human DU145 cells assessed as live cells at 4.8 uM measured after 24 hrs by Annexin-V/FITC and propidium iodide staining based flow cytometry (reference value: 95.62 %); assay type: functional
DU-145 [25] = assay: Induction of apoptosis in human DU145 cells assessed as necrotic cells at 4.8 uM measured after 24 hrs by Annexin-V/FITC and propidium iodide staining based flow cytometry (reference value: 2.64 %); assay type: functional

Compound	IC50 (A549) [µM]	IC50 (SK-OV-3) [µM]	IC50 (HeLa) [µM]	IC50 (COLO 205) [µM]	IC50 (DU-145 [1]) [µM]	also measured
C/C=C(\C)C(=O)O[C@@H]1[C@]2(OC(=O)CC)C=C3C4=CC(=O)O[C@@H](c5ccoc5)[C@]4(C)CC[C@@H]3[C@@]3(C)[C@H](C[C@]1(C)[C@H]3[C@@H](OC(=O)CC)C(=O)OC)O2	> 100	> 100	> 100	> 100	> 100	–
COC(=O)[C@H](O)[C@@H]1[C@@]2(C)C[C@@H]3O[C@@](O)(C=C4C5=CC(=O)O[C@@H](c6ccoc6)[C@]5(C)CC[C@@H]4[C@@]31C)[C@H]2O	9.6	> 100	> 100	> 100	> 100	–
C/C=C(\C)C(=O)O[C@@H]1[C@]2(OC(=O)C3CC3)C=C3C4=CC(=O)O[C@@H](c5ccoc5)[C@]4(C)CC[C@@H]3[C@@]3(C)[C@H](C[C@]1(C)[C@H]3[C@@H](OC(=O)C1CC1)C(=O)OC)O2	> 100	> 100	> 100	> 100	> 100	–
C/C=C(\C)C(=O)O[C@@H]1[C@]2(OC(=O)C(C)C)C=C3C4=CC(=O)O[C@@H](c5ccoc5)[C@]4(C)CC[C@@H]3[C@@]3(C)[C@H](C[C@]1(C)[C@H]3[C@@H](OC(=O)C(C)C)C(=O)OC)O2	> 100	> 100	> 100	> 100	> 100	–
C/C=C(\C)C(=O)O[C@@H]1[C@]2(OC(=O)CCCC)C=C3C4=CC(=O)O[C@@H](c5ccoc5)[C@]4(C)CC[C@@H]3[C@@]3(C)[C@H](C[C@]1(C)[C@H]3[C@@H](OC(=O)CCCC)C(=O)OC)O2	5.5	> 100	> 100	> 100	4.2	Activity (DU-145 [2]): Dose-dependent effect; Activity (DU-145 [3]): 3.91%; Activity (DU-145 [4]): 3.39%; Activity (DU-145 [5]): 2.45%; Activity (DU-145 [6]): 93.3%; Activity (DU-145 [7]): 5.73%; Activity (DU-145 [8]): 89.44%; Activity (DU-145 [9]): 0.92%; Activity (DU-145 [10]): 53.27%; Activity (DU-145 [11]): 0.86%
CCOC(=O)[C@H](O)[C@@H]1[C@@]2(C)C[C@@H]3O[C@@](O)(C=C4C5=CC(=O)O[C@@H](c6ccoc6)[C@]5(C)CC[C@@H]4[C@@]31C)[C@H]2O	16.3	> 100	> 100	> 100	3.6	Activity (DU-145 [12]): 6.45%; Activity (DU-145 [2]): Dose-dependent effect; Activity (DU-145 [13]): 89.27%; Activity (DU-145 [14]): 2.8%; Activity (DU-145 [15]): 3.42%; Activity (DU-145 [16]): 90.97%; Activity (DU-145 [17]): 0.84%; Activity (DU-145 [18]): 47.2%; Activity (DU-145 [19]): 0.86%; Activity (DU-145 [20]): 5.39%
C/C=C(\C)C(=O)O[C@H]1[C@]2(C)C[C@@H]3O[C@@]1(O)C=C1C4=CC(=O)O[C@@H](c5ccoc5)[C@]4(C)CC[C@@H]1[C@]3(C)[C@@H]2[C@@H](OC(C)=O)C(=O)OC	> 100	> 100	> 100	> 100	> 100	–
C/C=C(\C)C(=O)O[C@@H]1[C@]2(OC(=O)c3ccco3)C=C3C4=CC(=O)O[C@@H](c5ccoc5)[C@]4(C)CC[C@@H]3[C@@]3(C)[C@H](C[C@]1(C)[C@H]3[C@@H](OC(=O)c1ccco1)C(=O)OC)O2	7.6	> 100	> 100	> 100	17.8	–
C/C=C(\C)C(=O)O[C@@H]1[C@]2(OC(=O)C3CC3)C=C3C4=CC(=O)O[C@@H](c5ccoc5)[C@]4(C)CC[C@@H]3[C@@]3(C)[C@H](C[C@]1(C)[C@H]3[C@@H](O)C(=O)OC)O2	11.8	> 100	> 100	> 100	> 100	–
C/C=C(\C)C(=O)O[C@@H]1[C@]2(OC(=O)CC)C=C3C4=CC(=O)O[C@@H](c5ccoc5)[C@]4(C)CC[C@@H]3[C@@]3(C)[C@H](C[C@]1(C)[C@H]3[C@@H](O)C(=O)OC)O2	> 100	> 100	> 100	> 100	6.7	–
COc1cccc2c1C(=O)c1c(O)c3c(c(O)c1C2=O)C[C@@](O)(C(=O)CO)C[C@@H]3O[C@H]1C[C@H](N)[C@H](O)[C@H](C)O1 [DOXORUBICIN]	5.3	3	7.9	3.8	4.8	Activity (DU-145 [21]): Active; Activity (DU-145 [22]): 10.77%; Activity (DU-145 [23]): 2.41%; Activity (DU-145 [24]): 84.42%; Activity (DU-145 [25]): 2.4%
C/C=C(\C)C(=O)O[C@H]1[C@]2(C)C[C@@H]3O[C@@]1(O)C=C1C4=CC(=O)O[C@@H](c5ccoc5)[C@]4(C)CC[C@@H]1[C@]3(C)[C@@H]2C(=O)C(=O)OC	44.4	> 100	> 100	> 100	> 100	–
C/C=C(\C)C(=O)O[C@@H]1C(=O)/C=C2/C3=CC(=O)O[C@@H](c4ccoc4)[C@]3(C)CC[C@@H]2[C@@]2(C)C(=O)C[C@]1(C)[C@@H]2[C@@H](O)C(=O)OC	> 100	> 100	> 100	> 100	10.5	–
C/C=C(\C)C(=O)O[C@H]1[C@]2(C)C[C@@H]3O[C@@]1(O)C=C1C4=CC(=O)O[C@@H](c5ccoc5)[C@]4(C)CC[C@@H]1[C@]3(C)[C@@H]2[C@@H](O)C(=O)OC	8.1	> 100	> 100	> 100	7.7	–
